Measured values published in PubChem BioAssay AID330 (DTP/NCI, 2004).
Values joined by “and” are separate entries in the source; they are usually repeats but may differ in a detail not shown here. Identical values can stand only once. Toxic doses and inconclusive results are not listed.

Tested on: P388 leukemia ip, CD2F1 mice, survival T/C
Assay: NCI In Vivo Anticancer Drug Screen. Data for tumor model P388 Leukemia (intraperitoneal) in CD2F1 (CDF1) mice
Settings: endpoint: median survival time, higher = longer survival
Summary of the method: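 Mice carrying the transplanted tumor received test compound or vehicle. Survival was recorded in each group, and the value is the treated-group measurement divided by that of the vehicle-treated control group.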

[1] = dose: 60.0 mg/kg/injection, schedule: Q01DX005 (ip), vehicle: saline with Tween-80
[2] = dose: 120.0 mg/kg/injection, schedule: Q01DX005 (ip), vehicle: saline with Tween-80
[3] = dose: 25.0 mg/kg/injection, schedule: Q01DX009 (ip), vehicle: saline with Tween-80
[4] = dose: 50.0 mg/kg/injection, schedule: Q01DX009 (ip), vehicle: saline with Tween-80
[5] = dose: 50.0 mg/kg/injection, schedule: Q01DX005 (ip), vehicle: saline with Tween-80
[6] = dose: 100.0 mg/kg/injection, schedule: Q01DX005 (ip), vehicle: saline with Tween-80

`CS/C(=C1/C(=O)N(c2ccccc2)N=C1c1ccc(Br)cc1)N1CC1` was tested, and the T/C (dose: 100.0 mg/kg/injection, schedule: Q04DX003 (ip), vehicle: Klucel (hydroxypropylcellulose) (HPC)) was 95 % of control and the T/C (dose: 200.0 mg/kg/injection, schedule: Q04DX003 (ip), vehicle: Klucel (hydroxypropylcellulose) (HPC)) was 101 % of control.
With `CCCCCCCCCC(=O)Oc1cccc2c1CC(C[Se]c1ccccc1)C(=O)O2` (configuration not stated) the T/C (dose: 1.88 mg/kg/injection, schedule: Q01DX005 (ip), vehicle: saline with Tween-80) was 97 % of control, the T/C (dose: 3.75 mg/kg/injection, schedule: Q01DX005 (ip), vehicle: saline with Tween-80) was 101 % of control and the T/C (dose: 7.5 mg/kg/injection, schedule: Q01DX005 (ip), vehicle: saline with Tween-80) was 89 % of control and 91 % of control.
With `O=C1CC(c2ccc(Cl)cc2)OC(c2ccc(Cl)cc2)C1` (configuration not stated) the T/C (dose: 50.0 mg/kg/injection, schedule: Q01DX009 (ip), vehicle: saline) was 104 % of control, the T/C (dose: 100.0 mg/kg/injection, schedule: Q01DX009 (ip), vehicle: saline) was 102 % of control and the T/C (dose: 200.0 mg/kg/injection, schedule: Q01DX009 (ip), vehicle: saline) was 98 % of control.
For `Cc1ccc(NC(=O)Cc2nc3ccccc3s2)c(C)c1`, the T/C [1] was 103 % of control and the T/C [2] was 110 % of control.
With `CN(C)C(c1cccnc1)C1COCOC1` (configuration not stated) the T/C (dose: 50.0 mg/kg/injection, schedule: Q01DX005 (ip), vehicle: saline) was 109 % of control, the T/C (dose: 100.0 mg/kg/injection, schedule: Q01DX005 (ip), vehicle: saline) was 106 % of control and the T/C (dose: 200.0 mg/kg/injection, schedule: Q01DX005 (ip), vehicle: saline) was 98 % of control.
With `O=C(N/C(=C\c1cccc([N+](=O)[O-])c1)c1nc2ccccc2s1)c1ccccc1` the T/C [1] was 107 % of control, the T/C [2] was 106 % of control and the T/C (dose: 240.0 mg/kg/injection, schedule: Q01DX005 (ip), vehicle: saline with Tween-80) was 110 % of control.
With `COc1cccc(-n2cc[n+](C)c2/C=N/O)c1` the T/C [3] was 105 % of control and the T/C [4] was 108 % of control.
In the case of `CCOC(=O)C1=C(CC)NN=C(C)C1`, the T/C [5] is reported as 105 % of control, the T/C [6] is reported as 103 % of control and the T/C (dose: 200.0 mg/kg/injection, schedule: Q01DX005 (ip), vehicle: saline with Tween-80) is reported as 100 % of control.
For `CC([NH-])CC(C)[NH-].O=C(O)C(=O)O.[Pt+2]` (configuration not stated), the T/C (dose: 12.5 mg/kg/injection, schedule: Q04DX002 (ip), vehicle: saline with Tween-80) was 150 % of control and the T/C (dose: 25.0 mg/kg/injection, schedule: Q04DX002 (ip), vehicle: saline with Tween-80) was 174 % of control.
With `Cc1c(O)c2ccccc2c2c1sc(NCCCN(CCO)CCO)[n+]2C` the T/C (dose: 7.5 mg/kg/injection, schedule: Q01DX005 (ip), vehicle: saline) was 109 % of control, the T/C (dose: 15.0 mg/kg/injection, schedule: Q01DX005 (ip), vehicle: saline) was 107 % of control and the T/C (dose: 30.0 mg/kg/injection, schedule: Q01DX005 (ip), vehicle: saline) was 110 % of control.
`Cc1cccc2c(C(=O)O)cc(-c3ccc(Cl)cc3)nc12` was tested, and the T/C (dose: 12.5 mg/kg/injection, schedule: Q01DX009 (ip), vehicle: saline with Tween-80) was 104 % of control, the T/C [3] was 99 % of control and the T/C [4] was 108 % of control.
`O[B]c1nc2ccccc2c2ccccc12` was tested, and the T/C (dose: 60.0 mg/kg/injection, schedule: Q01DX005 (ip), vehicle: Klucel (hydroxypropylcellulose) (HPC)) was 105 % of control, the T/C (dose: 120.0 mg/kg/injection, schedule: Q01DX005 (ip), vehicle: Klucel (hydroxypropylcellulose) (HPC)) was 102 % of control and the T/C (dose: 240.0 mg/kg/injection, schedule: Q01DX005 (ip), vehicle: Klucel (hydroxypropylcellulose) (HPC)) was 119 % of control.
`CN(c1ccccc1)C(C#N)CC(C)(C)C` (configuration not stated) was tested, and the T/C (dose: 50.0 mg/kg/injection, schedule: Q01DX005 (ip), vehicle: Klucel (hydroxypropylcellulose) (HPC)) was 98 % of control and the T/C (dose: 100.0 mg/kg/injection, schedule: Q01DX005 (ip), vehicle: Klucel (hydroxypropylcellulose) (HPC)) was 107 % of control.
`CN(C)CCCN1CCC2(CCC(C(C)(C)C)CC2)CC1` was tested, and the T/C [5] was 106 % of control and the T/C [6] was 116 % of control.
In the case of `Cn1cc(CCc2cc[n+](CCC[n+]3ccc(CCc4cn(C)c5ccccc45)cc3)cc2)c2ccccc21`, the T/C (dose: 6.25 mg/kg/injection, schedule: Q01DX009 (ip), vehicle: Klucel (hydroxypropylcellulose) (HPC)) is reported as 104 % of control and the T/C (dose: 12.5 mg/kg/injection, schedule: Q01DX009 (ip), vehicle: Klucel (hydroxypropylcellulose) (HPC)) is reported as 106 % of control.
With `Cc1ccc(S(=O)(=O)Nc2cc(C)cc(CCNC=O)c2C)cc1` the T/C [4] was 104 % of control, the T/C (dose: 100.0 mg/kg/injection, schedule: Q01DX009 (ip), vehicle: saline with Tween-80) was 94 % of control and the T/C (dose: 200.0 mg/kg/injection, schedule: Q01DX009 (ip), vehicle: saline with Tween-80) was 99 % of control. The T/C (dose: 400.0 mg/kg/injection, schedule: Q01DX009 (ip), vehicle: saline with Tween-80) was 94 % of control.
